Source: patent US20050113256A1, “Methods of reducing the nicotine content of tobacco plants and tobacco plants obtained thereby” (priority 2003, published 2005)

How the values were obtained:
[1] = tested on: tobacco leaves (Nicotiana tabacum); assay: Treatment of individual tobacco leaves with test solutions, nicotine reduction; format: in vivo; conditions: incubated for about 3 days
[2] = tested on: transgenic tobacco plant leaves; conditions: transgenic tobacco leaves starting at 0.05 mg per gram; one GOX-leaf bruising treatment
Description: One group of the tobacco plants was exposed to H. zea neonates for a three day period during the growing season. A second group of the tobacco plants was exposed to H. zea neonates multiple times each for a three-day period during the growing season. A third group of tobacco plants was isolated from H. zea neonates for establishing a control. The leaves were harvested at the end of the growing season and the caterpillars were removed. The tobacco leaves were air dried and processed. Each of the dried tobacco leaves were treated and extracted with 10 ml of 25 mM sodium phosphate buffer at 30° C. for about 24 hours at constant agitation.

[3] = tested on: parasitoids (wasps) (Cotesia glomerate); assay: Attraction of parasitoids (wasps) to cabbage plants treated with β-glucosidase; format: in vivo; conditions: amount of β-glucosidase in 25 μl
Description: We have discovered that generic defense mechanisms are elicited by herbivores such as caterpillars. In this example, a caterpillar (Pieris brassicae) attacked a cabbage plant releasing a defensive mixture of volatiles which attract parasitic wasps (Cotesia glomerate) which then attack and destroy the caterpillars. The caterpillar gut regurgitant contains enzymatic β-glucosidase which elicits the mixture of volatiles referred to above. Commercial β-glucosidase performs in a similar manner.
Cabbage (eight weeks old) and P. Brassicae (caterpillar) and parasitoids (wasps) were reared according to the method of Steinberg S. et al., Entomol. Exp. Appl 63 163-175 (1992). […] Ion chromatograms identified […], 1-hexanol, E-2-hexene 1-YL acetate as major components of the volatiles released by the cabbage plants. This experiment illustrates another specific example (compare to H. zea) of evolutionary arms race wherein an elicitor-antagonist biological system focuses on a defensive enzyme reaction.

Substance	Reduction of Nicotine [1] [mg/g]	nicotine content after treatment [2]	attraction of parasitoids (wasps) [3]
glucose oxidase [Active GOX]	0.60 to 0.70	0.01 mg of nicotine/per gram	
β-glucosidase			clearly resulted in the attraction of parasitoids
